Measured values: PubChem BioAssay AID1918946 (Molecular Pharmacology Branch, DTP, NCI, 2023)

Test system: 885512-296-R-J2-PDC complex spheroid viability
Assay: Anticancer human tumor 885512-296-R-J2-PDC patient-derived breast carcinoma cell line growth inhibition
Details: for IC50: curve of first compound; for viability, T/C: stronger effect = lower value
In short: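 Drug combinations with the LSD1 inhibitor iadademstat tested on tumor cells co-cultured as spheroids with endothelial cells and mesenchymal stem cells. Concentrations descended in half-log increments from clinical Cmax or 10 microM.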

[1] = second compound 0.1 µM, first compound 0.000316 µM
[2] = second compound 0.1 µM, first compound 0.001 µM
[3] = second compound 0.1 µM, first compound 0.00316 µM
[4] = second compound 0.1 µM, first compound 0.01 µM
[5] = second compound 0.1 µM, first compound 0.0316 µM
[6] = second compound 0.1 µM, first compound 0.1 µM
[7] = second compound 0.316 µM, first compound 0.000316 µM
[8] = second compound 0.316 µM, first compound 0.001 µM
[9] = second compound 0.316 µM, first compound 0.00316 µM
[10] = second compound 0.316 µM, first compound 0.01 µM
[11] = second compound 0.316 µM, first compound 0.0316 µM
[12] = second compound 0.316 µM, first compound 0.1 µM
[13] = second compound 1 µM, first compound 0.000316 µM
[14] = second compound 1 µM, first compound 0.001 µM
[15] = second compound 1 µM, first compound 0.00316 µM
[16] = second compound 1 µM, first compound 0.01 µM
[17] = second compound 1 µM, first compound 0.0316 µM
[18] = second compound 1 µM, first compound 0.1 µM
[19] = second compound 3.16 µM, first compound 0.000316 µM
[20] = second compound 3.16 µM, first compound 0.001 µM
[21] = second compound 3.16 µM, first compound 0.00316 µM
[22] = second compound 3.16 µM, first compound 0.01 µM
[23] = second compound 3.16 µM, first compound 0.0316 µM
[24] = second compound 3.16 µM, first compound 0.1 µM
[25] = second compound 10 µM, first compound 0.000316 µM
[26] = second compound 10 µM, first compound 0.001 µM
[27] = second compound 10 µM, first compound 0.00316 µM
[28] = second compound 10 µM, first compound 0.01 µM
[29] = second compound 10 µM, first compound 0.0316 µM
[30] = second compound 10 µM, first compound 0.1 µM
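Further: spheroids exposed to agents for 7 days before viability read.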

CC(C)CC(NC(=O)C(Cc1ccccc1)NC(=O)c1cnccn1)B(O)O (stereo not given) + NC1CC1c1ccc(-c2cccc(O)c2)cc1
IC50 (second compound 0.1 µM): < 0.316 nM
IC50 (second compound 0.316 µM): < 0.316 nM
IC50 (second compound 1 µM): < 0.316 nM
IC50 (second compound 3.16 µM): < 0.316 nM
IC50 (second compound 10 µM): < 0.316 nM
viability, T/C [1]: 18.7%
viability, T/C [2]: 1.21%
viability, T/C [3]: 7.48%
viability, T/C [4]: 0.02%
viability, T/C [5]: 0.02%
viability, T/C [6]: 0.09%
viability, T/C [7]: 19%
viability, T/C [8]: 0.69%
viability, T/C [9]: 0.05%
viability, T/C [10]: 0.01%
viability, T/C [11]: 0.01%
viability, T/C [12]: 0.08%
viability, T/C [13]: 18.5%
viability, T/C [14]: 0.65%
viability, T/C [15]: 0.02%
viability, T/C [16]: 0.01%
viability, T/C [17]: 0.01%
viability, T/C [18]: 0.09%
viability, T/C [19]: 15.5%
viability, T/C [20]: 0.58%
viability, T/C [21]: 0.16%
viability, T/C [22]: 0.01%
viability, T/C [23]: 0.02%
viability, T/C [24]: 0.1%
viability, T/C [25]: 11.2%
viability, T/C [26]: 0.27%
viability, T/C [27]: 0.11%
viability, T/C [28]: 0.12%
viability, T/C [29]: 0.14%
viability, T/C [30]: 0.14%

CC(C)CC(NC(=O)CNC(=O)c1cc(Cl)ccc1Cl)B1OC(=O)CC(CC(=O)O)(C(=O)O)O1 (stereo not given) + NC1CC1c1ccc(-c2cccc(O)c2)cc1
IC50 (second compound 0.1 µM): 4.92 nM
IC50 (second compound 0.316 µM): 5.16 nM
IC50 (second compound 1 µM): 5.08 nM
IC50 (second compound 3.16 µM): 4.23 nM
IC50 (second compound 10 µM): 3.35 nM
viability, T/C [1]: 125%
viability, T/C [2]: 126%
viability, T/C [3]: 75%
viability, T/C [4]: 10.1%
viability, T/C [5]: 1.77%
viability, T/C [6]: 0.48%
viability, T/C [7]: 130%
viability, T/C [8]: 113%
viability, T/C [9]: 79.6%
viability, T/C [10]: 10.3%
viability, T/C [11]: 2.04%
viability, T/C [12]: 0.45%
viability, T/C [13]: 132%
viability, T/C [14]: 116%
viability, T/C [15]: 78.6%
viability, T/C [16]: 9.38%
viability, T/C [17]: 1.61%
viability, T/C [18]: 0.42%
viability, T/C [19]: 121%
viability, T/C [20]: 103%
viability, T/C [21]: 65.7%
viability, T/C [22]: 8.61%
viability, T/C [23]: 1.75%
viability, T/C [24]: 0.31%
viability, T/C [25]: 82.8%
viability, T/C [26]: 87.5%
viability, T/C [27]: 52%
viability, T/C [28]: 5.61%
viability, T/C [29]: 1.05%
viability, T/C [30]: 0.22%

COc1cc(Nc2ncc3c(n2)-c2ccc(Cl)cc2C(c2c(F)cccc2OC)=NC3)ccc1C(=O)O + NC1CC1c1ccc(-c2cccc(O)c2)cc1
IC50 (second compound 0.1 µM): < 3.16 nM
IC50 (second compound 0.316 µM): < 3.16 nM
IC50 (second compound 1 µM): < 3.16 nM
IC50 (second compound 3.16 µM): < 3.16 nM
IC50 (second compound 10 µM): < 3.16 nM
viability, T/C [3]: 32%
viability, T/C [4]: 34%
viability, T/C [5]: 17.9%
viability, T/C [6]: 23.5%
viability, T/C (second compound 0.1 µM, first compound 0.316 µM): 21.7%
viability, T/C (second compound 0.1 µM, first compound 1 µM): 20.1%
viability, T/C [9]: 30.3%
viability, T/C [10]: 35.4%
viability, T/C [11]: 20.9%
viability, T/C [12]: 21.7%
viability, T/C (second compound 0.316 µM, first compound 0.316 µM): 25.4%
viability, T/C (second compound 0.316 µM, first compound 1 µM): 19.1%
viability, T/C [15]: 33.5%
viability, T/C [16]: 35.8%
viability, T/C [17]: 20.4%
viability, T/C [18]: 21.6%
viability, T/C (second compound 1 µM, first compound 0.316 µM): 22.1%
viability, T/C (second compound 1 µM, first compound 1 µM): 19.6%
viability, T/C [21]: 27%
viability, T/C [22]: 29.8%
viability, T/C [23]: 19.8%
viability, T/C [24]: 13.2%
viability, T/C (second compound 3.16 µM, first compound 0.316 µM): 19.4%
viability, T/C (second compound 3.16 µM, first compound 1 µM): 15.4%
viability, T/C [27]: 15%
viability, T/C [28]: 20.2%
viability, T/C [29]: 14.2%
viability, T/C [30]: 8.64%
viability, T/C (second compound 10 µM, first compound 0.316 µM): 11.8%
viability, T/C (second compound 10 µM, first compound 1 µM): 12.7%

O=C(C=Cc1cccc(S(=O)(=O)Nc2ccccc2)c1)NO + NC1CC1c1ccc(-c2cccc(O)c2)cc1
IC50 (second compound 0.1 µM): > 3000 nM
IC50 (second compound 0.316 µM): 41.9 nM
IC50 (second compound 1 µM): 71.5 nM
IC50 (second compound 3.16 µM): 39.1 nM
IC50 (second compound 10 µM): 19.5 nM
viability, T/C (second compound 0.1 µM, first compound 0.00949 µM): 104%
viability, T/C (second compound 0.1 µM, first compound 0.03 µM): 66.5%
viability, T/C (second compound 0.1 µM, first compound 0.0949 µM): 26.4%
viability, T/C (second compound 0.1 µM, first compound 0.3 µM): 15.9%
viability, T/C (second compound 0.1 µM, first compound 0.949 µM): 2.01%
viability, T/C (second compound 0.1 µM, first compound 3 µM): 136%
viability, T/C (second compound 0.316 µM, first compound 0.00949 µM): 106%
viability, T/C (second compound 0.316 µM, first compound 0.03 µM): 61.2%
viability, T/C (second compound 0.316 µM, first compound 0.0949 µM): 23.3%
viability, T/C (second compound 0.316 µM, first compound 0.3 µM): 12%
viability, T/C (second compound 0.316 µM, first compound 0.949 µM): 2.58%
viability, T/C (second compound 0.316 µM, first compound 3 µM): 116%
viability, T/C (second compound 1 µM, first compound 0.00949 µM): 96.3%
viability, T/C (second compound 1 µM, first compound 0.03 µM): 73.6%
viability, T/C (second compound 1 µM, first compound 0.0949 µM): 26.6%
viability, T/C (second compound 1 µM, first compound 0.3 µM): 13.9%
viability, T/C (second compound 1 µM, first compound 0.949 µM): 1.94%
viability, T/C (second compound 1 µM, first compound 3 µM): 127%
viability, T/C (second compound 3.16 µM, first compound 0.00949 µM): 92.1%
viability, T/C (second compound 3.16 µM, first compound 0.03 µM): 53.6%
viability, T/C (second compound 3.16 µM, first compound 0.0949 µM): 26.4%
viability, T/C (second compound 3.16 µM, first compound 0.3 µM): 14.4%
viability, T/C (second compound 3.16 µM, first compound 0.949 µM): 1.95%
viability, T/C (second compound 3.16 µM, first compound 3 µM): 109%
viability, T/C (second compound 10 µM, first compound 0.00949 µM): 62.8%
viability, T/C (second compound 10 µM, first compound 0.03 µM): 42.4%
viability, T/C (second compound 10 µM, first compound 0.0949 µM): 16.9%
viability, T/C (second compound 10 µM, first compound 0.3 µM): 8.77%
viability, T/C (second compound 10 µM, first compound 0.949 µM): 0.61%
viability, T/C (second compound 10 µM, first compound 3 µM): 82.6%
